Data as given in patent publication US12448388B2, “PRMT5 inhibitors and uses thereof” (Gilead Sciences, Inc., priority 2023, dated 2025).
Like-named read-outs stand apart in the source and are kept apart here.

Test system: HCT116 MTAP-deleted cell lines
Test: Cell viability assay (CellTiter-Glo, 7 days), HCT116 MTAP-deleted
Type: cell-based
Conditions: Homo sapiens, HCT-116
Method: Control compounds were analyzed in parallel each time for quality control. In Brief, on Day -1, a serial dilution of stock compounds in DMSO was performed using BioMek liquid handlers and dispensed using Echo acoustic dispenser into 384 well plates. Both tool compounds and sample compounds were spotted in the same plate for a dose response of PRMT5 inhibitors. Compound plates were stored as frozen until the cells were ready for seeding. […] After equilibrating the plate in room temperature, the cells were incubated for 7 days inside the sealed incubator set at 37° C. with 90% humidity and 5% CO2. On Day 7, the viability of cells was measured using a CTG assay kit (CellTitre-Glo;Promega cat no. G7573). Shortly, 40 μl per well of luminescent cell viability assay reagent were dispensed using EL460 liquid dispenser 5 μl cassette. CTG luminescence signal was measured using an EnVision plate reader (PerkinElmer) in accordance with manufacturer's instruction. […] Selectivity with * is artificially high due to limited solubility of the compound hampering accurate measurement of WT CC50.

[1] = cell viability, HCT116 MTAP-deleted, class symbols, read-out: CC50
[2] = cell viability assay, HCT116 MTAP-deleted, class symbols, read-out: CC50

## Cc1ncn2c1c(N)nc1cc(F)c(C(=O)N(C)[C@@H]3COCc4nc(C(F)(F)F)ccc43)cc12 [Ff-303, (S)-4-amino-7-fluoro-N,3-dimethyl-N-(2-(trifluoromethyl)-5,8-dihydro-6H-pyrano[3,4-b]pyridin-5-yl)imidazo[1,5-a]quinoxaline-8-carboxamide]
[1]
  CC50: < 0.1 µM

## Nc1nc2cc(F)c(C(=O)N3CCO[C@@H]4Cc5c(ccc(Br)c5F)[C@@H]43)cc2n2cncc12 [Ff-159, (4-amino-7-fluoroimidazo[1,5-a]quinoxalin-8-yl)((4aS,9aR)-7-bromo-8-fluoro-2,3,9,9a-tetrahydroindeno[2,1-b][1,4]oxazin-4(4aH)-yl)methanone]
[1]
  CC50: < 0.1 µM

## C[C@@H]1C[C@@H]2OCc3nc(C(F)(F)F)ccc3[C@@H]2N(C(=O)c2cc3c(cc2F)nc(N)c2cncn23)C1 (racemic) [Ff-323, Rac-(4-amino-7-fluoroimidazo[1,5-a]quinoxalin-8-yl)((3R,4aS,10bS)-3-methyl-8-(trifluoromethyl)-2,3,4,4a,6,10b-hexahydro-1H-pyrano[3,2-b:5,4-b′]dipyridin-1-yl)methanone]
[1]
  CC50: < 0.1 µM

## Cc1ncc2c(N)nc3cnc(C(=O)N4C[C@@H](F)C[C@@H]5Oc6cc(OC(F)(F)F)ccc6[C@@H]54)cc3n12 [Fg-45, (4-amino-1-methylimidazo[1,5-a]pyrido[3,4-e]pyrazin-8-yl)((3S,4aS,9bS)-3-fluoro-7-(trifluoromethoxy)-3,4,4a,9b-tetrahydrobenzofuro[3,2-b]pyridin-1(2H)-yl)methanone]
[2]
  CC50: < 0.1 µM

## CCN(C(=O)c1cc2c(cn1)nc(N)c1cnc(C)n12)[C@@H]1COc2cc(C(F)(F)F)ccc21 [Ff-613, (S)-4-amino-N-ethyl-1-methyl-N-(6-(trifluoromethyl)-2,3-dihydrobenzofuran-3-yl)imidazo[1,5-a]pyrido[3,4-e]pyrazine-8-carboxamide]
[2]
  CC50: < 0.1 µM

## Cc1ncc2c(N)nc3ccc(C(=O)N4CCC5(CC4)COc4ccccc45)cc3n12 [Ff-61, (4-amino-1-methylimidazo[1,5-a]quinoxalin-8-yl)(2H-spiro[benzofuran-3,4′-piperidin]-1′-yl)methanone]
[1]
  CC50: > 1 µM

## CN(C(=O)c1cc2c(cc1F)nc(N)c1cncn12)[C@@H]1COc2cc(C#CC(F)(F)F)ccc21 [Ff-515, (S)-4-amino-7-fluoro-N-methyl-N-(6-(3,3,3-trifluoroprop-1-yn-1-yl)-2,3-dihydrobenzofuran-3-yl)imidazo[1,5-a]quinoxaline-8-carboxamide]
[2]
  CC50: 0.1 to 1 µM

## C[C@H]1CN(C(=O)c2cc3c(cn2)nc(N)c2cncn23)[C@H]2c3cc(F)c(OC(F)(F)F)cc3C[C@H]2O1 (single isomer, unassigned) [Ff-196]
[1]
  CC50: < 0.1 µM

## CN(C(=O)C1CC1)N(Cc1cc(F)c(F)cc1F)C(=O)c1cc2c(cc1F)nc(N)c1cncn12 [Fa-8, 4-amino-N′-(cyclopropanecarbonyl)-7-fluoro-N′-methyl-N-(2,4,5-trifluorobenzyl)imidazo[1,5-a]quinoxaline-8-carbohydrazide]
[1]
  CC50: < 0.1 µM

## CN(C(=O)c1cc2c(cc1C1CC1)nc(N)c1cncn12)[C@@H]1COc2cc(C(F)(F)F)ccc21 [Ff-614, (S)-4-amino-7-cyclopropyl-N-methyl-N-(6-(trifluoromethyl)-2,3-dihydrobenzofuran-3-yl)imidazo[1,5-a]quinoxaline-8-carboxamide]
[2]
  CC50: < 0.1 µM

## Cc1ncn2c1c(N)nc1cc(F)c(C(=O)N(C)[C@@H]3COc4cc(C(C)(F)F)ccc43)cc12 [Ff-382, (S)-4-amino-N-(6-(1,1-difluoroethyl)-2,3-dihydrobenzofuran-3-yl)-7-fluoro-N,3-dimethylimidazo[1,5-a]quinoxaline-8-carboxamide]
[2]
  CC50: < 0.1 µM

## CN(C(=O)c1cc2c(cc1F)nc(N)c1cncn12)[C@@H]1COc2cc(C#CC3C4COCC34)ccc21 (stereo partly drawn) [Ff-524, N-((3S)-6-((3-oxabicyclo[3.1.0]hexan-6-yl)ethynyl)-2,3-dihydrobenzofuran-3-yl)-4-amino-7-fluoro-N-methylimidazo[1,5-a]quinoxaline-8-carboxamide]
[2]
  CC50: < 0.1 µM

## Nc1nc2cc(F)c(C(=O)N3CCC4(CC4)CC3c3ccc(C(F)(F)F)cn3)cc2n2cncc12 (centres unmarked) [Ff-225, (4-amino-7-fluoroimidazo[1,5-a]quinoxalin-8-yl)(5-(5-(trifluoromethyl)pyridin-2-yl)-6-azaspiro[2.5]octan-6-yl)methanone]
  CC50: 0.1 to 1 µM

## Cc1ncn2c1c(N)nc1cnc(C(=O)N(C)[C@@H]3COc4cc(C56CC(C5)C6)ccc43)cc12 [Ff-452, (S)-4-amino-N-(6-(bicyclo[1.1.1]pentan-1-yl)-2,3-dihydrobenzofuran-3-yl)-N,3-dimethylimidazo[1,5-a]pyrido[3,4-e]pyrazine-8-carboxamide]
[2]
  CC50: < 0.1 µM

## Nc1nc2ccc(C(=O)N3CCO[C@@H]4Cc5cc(Br)ccc5[C@@H]43)cc2n2cncc12 (racemic) [Ff-37, Racemic (4-aminoimidazo[1,5-a]quinoxalin-8-yl)((4aS,9aR)-7-bromo-2,3,9,9a-tetrahydroindeno[2,1-b][1,4]oxazin-4(4aH)-yl)methanone]
[1]
  CC50: 0.1 to 1 µM

## CN(C(=O)c1cc2c(cc1F)nc(N)c1cnc(Br)n12)[C@@H]1COc2cc(C(F)(F)F)ccc21 (single isomer, unassigned) [Ff-493]
[2]
  CC50: 0.1 to 1 µM

## Nc1nc2ccc(C(=O)N3CC[C@H]4C[C@@H]3c3ccc(C(F)(F)F)cc3O4)cc2n2cncc12 [Ff-510, (4-aminoimidazo[1,5-a]quinoxalin-8-yl)((2S,6R)-9-(trifluoromethyl)-3,4-dihydro-2H-2,6-methanobenzo[b][1,5]oxazocin-5(6H)-yl)methanone]
[2]
  CC50: < 0.1 µM

## CN(C(=O)c1cc2c(cc1F)nc(N)c1cncn12)[C@@H]1COc2cc([C@@H]3C[C@H]3C(F)F)ccc21 (single isomer, unassigned) [Ff-504]
[2]
  CC50: < 0.1 µM

## C[C@@H]1CN(C(=O)c2cc3c(cc2F)nc(N)c2cncn23)[C@@H]2c3ccc(C(F)(F)F)cc3C[C@@H]2O1 (single isomer, unassigned) [Ff-78]
[1]
  CC50: < 0.1 µM

## CCc1cc2nc(N)c3cncn3c2cc1C(=O)N(C)[C@@H]1COc2cc(C(F)(F)F)ccc21 [Fg-52, (S)-4-amino-7-ethyl-N-methyl-N-(6-(trifluoromethyl)-2,3-dihydrobenzofuran-3-yl)imidazo[1,5-a]quinoxaline-8-carboxamide]
[2]
  CC50: < 0.1 µM

## CN(C(=O)c1cc2c(cc1F)nc(N)c1cncn12)[C@@H]1COc2ccc([C@H]3C[C@@H]3C#N)cc21 (stereo in doubt) [Ff-263, Trans-4-amino-N-((3S)-5-(2-cyanocyclopropyl)-2,3-dihydrobenzofuran-3-yl)-7-fluoro-N-methylimidazo[1,5-a]quinoxaline-8-carboxamide]
[1]
  CC50: 0.1 to 1 µM

## CN(C(=O)c1cc2c(cc1F)nc(N)c1cncn12)[C@@H]1COc2cc(Br)ccc21 [Ff-94, (S)-4-amino-N-(6-bromo-2,3-dihydrobenzofuran-3-yl)-7-fluoro-N-methylimidazo[1,5-a]quinoxaline-8-carboxamide]
[1]
  CC50: < 0.1 µM

## Cc1ncn2c1c(N)nc1cnc(C(=O)N3C[C@H](C)C[C@@H]4CCc5cc(C(F)(F)F)ccc5[C@@H]43)cc12 (racemic) [Ff-462, Rac-(4-amino-3-methylimidazo[1,5-a]pyrido[3,4-e]pyrazin-8-yl)((3R,4aS,10bR)-3-methyl-8-(trifluoromethyl)-3,4,4a,5,6,10b-hexahydrobenzo[h]quinolin-1(2H)-yl)methanone]
[2]
  CC50: 0.1 to 1 µM

## CN(C(=O)c1cc2c(cc1Cl)nc(N)c1cncn12)[C@@H]1COc2cc(OC(F)(F)F)ccc21 [Ff-562, (S)-4-amino-7-chloro-N-methyl-N-(6-(trifluoromethoxy)-2,3-dihydrobenzofuran-3-yl)imidazo[1,5-a]quinoxaline-8-carboxamide]
[2]
  CC50: < 0.1 µM

## CN(C(=O)c1cc2c(cc1F)nc(N)c1cncn12)[C@@H]1COc2cc(C3CCOC3(C)C)ccc21 (stereo partly drawn) [Ff-486, 4-amino-N-((3S)-6-(2,2-dimethyltetrahydrofuran-3-yl)-2,3-dihydrobenzofuran-3-yl)-7-fluoro-N-methylimidazo[1,5-a]quinoxaline-8-carboxamide]
[2]
  CC50: < 0.1 µM

## Nc1nc2cnc(C(=O)N3CCCC[C@@H]3c3ccc(C(F)(F)F)cc3)cc2n2cncc12 [Ff-87, (R)-(4-aminoimidazo[1,5-a]pyrido[3,4-e]pyrazin-8-yl)(2-(4-(trifluoromethyl)phenyl)piperidin-1-yl)methanone]
[1]
  CC50: < 0.1 µM

## Cn1nccc1-c1ccc(CN(C(=O)c2cc3c(cc2F)nc(N)c2cncn23)C23CC(C2)C3)c(F)c1 [Ff-219, 4-amino-N-(bicyclo[1.1.1]pentan-1-yl)-7-fluoro-N-(2-fluoro-4-(1-methyl-1H-pyrazol-5-yl)benzyl)imidazo[1,5-a]quinoxaline-8-carboxamide]
[1]
  CC50: < 0.1 µM

## CN(C(=O)c1cc2c(cc1F)nc(N)c1cncn12)[C@@H]1COc2cc(C3CC(C#N)C3)ccc21 (stereo partly drawn) [Ff-465, (S)-4-amino-N-(6-(3-cyanocyclobutyl)-2,3-dihydrobenzofuran-3-yl)-7-fluoro-N-methylimidazo[1,5-a]quinoxaline-8-carboxamide]
[2]
  CC50: < 0.1 µM

## Nc1nc2cc(F)c(C(=O)N3CCC[C@@H]4Oc5cc(OC(F)(F)F)cc(F)c5[C@@H]43)cc2n2cncc12 (racemic) [Ff-350, Rac-(4-amino-7-fluoroimidazo[1,5-a]quinoxalin-8-yl)((4aS,9bS)-9-fluoro-7-(trifluoromethoxy)-3,4,4a,9b-tetrahydrobenzofuro[3,2-b]pyridin-1(2H)-yl)methanone]
[1]
  CC50: < 0.1 µM
